One compound from patent publication US20180264001A1 (Teva Pharmaceuticals International GmbH, priority 2015, published 2018) can be followed below.

The conditions of the data set: Canine plasma +1% Tocophersolan, 37° C. The protocol: Samples were protected from light under constant agitation using a vortex mixer. The stability of the API under these conditions was assessed at timed intervals (T=0, 2, 4, 21, 24 hours and 2 and 3 days).

`Cc1cc2c(s1)Nc1ccccc1N=C2N1CCN(C)CC1.O.O=C(O)c1cc2ccccc2c(Cc2c(O)c(C(=O)O)cc3ccccc23)c1O` [olanzapine pamoate monohydrate]: the “Concentration (saturated solubility)” value worked out at 817.47 µg/mL.
